Reference: US20200247800A1, “SUBSTITUTED BICYCLIC HETEROCYCLIC COMPOUNDS AS NADPH OXIDASE INHIBITORS” (Glenmark Pharmaceuticals S.A., priority 2017, published 2020)
Structures can show the parent of a compound that is named as a salt.

Target: T1, human NOX4 (Homo sapiens, UniProt Q9NPH5)
T1 construct: expressed in transfected cells; membrane fraction used
T1 sequence (Q9NPH5 1-578): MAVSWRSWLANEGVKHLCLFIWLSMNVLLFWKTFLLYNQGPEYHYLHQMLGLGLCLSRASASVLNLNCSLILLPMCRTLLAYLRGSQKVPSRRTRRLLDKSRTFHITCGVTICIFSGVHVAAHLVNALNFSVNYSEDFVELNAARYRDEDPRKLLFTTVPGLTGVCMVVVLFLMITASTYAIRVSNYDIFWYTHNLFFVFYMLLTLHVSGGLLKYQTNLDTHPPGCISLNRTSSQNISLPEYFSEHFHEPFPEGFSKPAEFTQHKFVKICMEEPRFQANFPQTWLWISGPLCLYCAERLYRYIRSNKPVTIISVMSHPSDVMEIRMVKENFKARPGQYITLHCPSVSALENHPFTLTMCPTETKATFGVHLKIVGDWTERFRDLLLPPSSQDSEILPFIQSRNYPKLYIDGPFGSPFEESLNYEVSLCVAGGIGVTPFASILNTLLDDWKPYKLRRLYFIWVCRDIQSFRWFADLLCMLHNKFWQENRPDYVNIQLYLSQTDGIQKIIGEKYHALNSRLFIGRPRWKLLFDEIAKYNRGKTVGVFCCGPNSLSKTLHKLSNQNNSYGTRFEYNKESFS
T1 sequence (P13498 1-195 partner): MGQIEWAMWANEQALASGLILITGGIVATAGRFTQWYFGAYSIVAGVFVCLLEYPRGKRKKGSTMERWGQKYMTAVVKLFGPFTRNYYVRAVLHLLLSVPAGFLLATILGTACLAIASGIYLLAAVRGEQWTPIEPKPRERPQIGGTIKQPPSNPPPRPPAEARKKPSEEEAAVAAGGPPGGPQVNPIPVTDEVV
Experiment: Cell free membrane based in vitro NOX4 assay: H2O2 production by membranes expressing human NOX4, measured with Amplex Red
Assay type: biochemical
Details: for inhibition at 1 µM / Percentage inhibition at 1.0 μM: 1.0 μM compound; for inhibition at 1 µM: read-out: Percentage inhibition at 1.0 μM; for inhibition at 10 µM / Percentage inhibition at 10.0 μM: 10.0 μM compound; for inhibition at 10 µM: read-out: Percentage inhibition at 10.0 μM; for IC50: class symbols
How it was run: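 Membranes from HEK cells stably overexpressing human NOX4 were preincubated 20 min with inhibitor in pH 7.4 HEPES buffer containing HRP and Amplex Red, then NADPH was added. H2O2 was followed for 10 min by fluorescence (ex 544/em 590 nm). IC50 from nonlinear regression of % maximal uninhibited response.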

inhibition at 1 µM | inhibition at 10 µM | IC50 | SMILES | further results
8.66% | 11% |  | Cc1c2oc(-c3ccccc3Cl)c(O)c(=O)c2nn1C(C)C [Example 228, 5-(2-Chlorophenyl)-6-hydroxy-3-methyl-2-(propan-2-yl)pyrano[3,2-c]pyrazol-7(2H)-one] | 
4.45% | 5.81% |  | CCn1nc2c(=O)c(O)c(-c3ccccc3Cl)oc2c1C [Example 229, 5-(2-Chlorophenyl)-2-ethyl-6-hydroxy-3-methylpyrano[3,2-c]pyrazol-7(2H)-one] | 
3.28% | 5.83% |  | Cc1nn(C)c2oc(-c3ccccc3Cl)c(O)c(=O)c12 [Example 230, 6-(2-chlorophenyl)-5-hydroxy-1,3-dimethylpyrano[2,3-c]pyrazol-4(1H)-one] | 
12.5% | 9.39% |  | Cc1nn(-c2ccc(F)cc2)c2oc(-c3ccccc3Cl)c(O)c(=O)c12 [Example 231, 6-(2-Chlorophenyl)-1-(4-fluorophenyl)-5-hydroxy-3-methylpyrano[2,3-c]pyrazol-4(1H)-one] | 
85.1% | 84.8% | 0.05 to 0.1 µM | Cc1nn(CCCO)c2[nH]c(-c3c(F)cccc3F)c(O)c(=O)c12 [Example 232, 6-(2,6-Difluorophenyl)-5-hydroxy-1-(3-hydroxypropyl)-3-methyl-1H-pyrazolo[3,4-b]pyridin-4(7H)-one] | 
32.8% | 69.7% |  | COc1c(-c2ccccc2Cl)[nH]c2c(c(C)nn2C)c1=O [Example 233, 6-(2-chlorophenyl)-5-methoxy-1,3-dimethyl-1H-pyrazolo[3,4-b]pyridin-4(7H)-one] | 
25.8% | 70.2% |  | CCn1nc(C)c2c(=O)c(OC)c(-c3c(F)cccc3F)[nH]c21 [Example 234] | 
72.9% |  | > 0.15 µM | CCn1nc(C)c2c(=O)c(O)c(-c3ccc(NS(C)(=O)=O)cc3F)[nH]c21 [Example 235, N-[4-(1-ethyl-5-hydroxy-3-methyl-4-oxo-4,7-dihydro-1H-pyrazolo[3,4-b]pyridin-6-yl)-3-fluorophenyl]methanesulfonamide] | 
84.8% | 87.7% | 0.05 to 0.1 µM | CCn1nc(C)c2c(=O)c(O)c(-c3c(F)cc(NS(C)(=O)=O)cc3F)[nH]c21 [Example 236, N-[4-(1-Ethyl-5-hydroxy-3-methyl-4-oxo-4,7-dihydro-1H-pyrazolo[3,4-b]pyridin-6-yl)-3,5-difluorophenyl]methanesulfonamide] | 
60.9% | 74.3% | > 0.15 µM | Cn1nc(C(F)(F)F)c2c(=O)c(O)c(-c3ccc(NS(C)(=O)=O)cc3F)[nH]c21 [Example 237, N-{3-Fluoro-4-[5-hydroxy-1-methyl-4-oxo-3-(trifluoromethyl)-4,7-dihydro-1H-pyrazolo[3,4-b]pyridin-6-yl]phenyl}methanesulfonamide] | 
 |  | > 0.15 µM | CCc1nn(CCN2CCOCC2)c2[nH]c(-c3ccccc3Cl)c(O)c(=O)c12 [Example 238, 6-(2-Chlorophenyl)-3-ethyl-5-hydroxy-1-(2-morpholinoethyl)-1H-pyrazolo[3,4-b]pyridin-4(7H)-one hydrochloride] | Percentage inhibition at 1.0 μM (hydrochloride): 80.17%; Percentage inhibition at 10.0 μM (hydrochloride): 71.20%
 |  |  | Cc1nn(CCN2CCOCC2)c2[nH]c(-c3cccc(C(F)(F)F)c3F)c(O)c(=O)c12 [Example 239, 6-(2-Fluoro-3-(trifluoromethyl)phenyl)-5-hydroxy-3-methyl-1-(2-morpholinoethyl)-1H-pyrazolo[3,4-b]pyridin-4(7H)-one dihydrochloride] | Percentage inhibition at 1.0 μM (dihydrochloride): 84.59%; Percentage inhibition at 10.0 μM (dihydrochloride): 77.77%
 |  | > 0.15 µM | Cc1nn(CCN2CCN(C)CC2)c2[nH]c(-c3ccccc3Cl)c(O)c(=O)c12 [Example 243, 6-(2-Chlorophenyl)-5-hydroxy-3-methyl-1-(2-(4-methylpiperazin-1-yl)ethyl)-1H-pyrazolo[3,4-b]pyridin-4(7H)-one fumarate] | 
